Where two headings read alike, the source gives them in different places. Square brackets hold non-standard residues; d marks the D form. Side chains are listed from the residue outwards. Peptide text beside a SMILES is read from it. * marks the point of attachment. His(τ-Bzl) = N[C@@H](Cc1cn(Cc2ccccc2)cn1)C(=O)O; Phe(3,4-F2) = N[C@@H](Cc1ccc(F)c(F)c1)C(=O)O; Phe(4-F) = N[C@@H](Cc1ccc(F)cc1)C(=O)O; 2Nal = N[C@@H](Cc1ccc2ccccc2c1)C(=O)O; d2Nal = N[C@H](Cc1ccc2ccccc2c1)C(=O)O; Tle = CC(C)(C)[C@H](N)C(=O)O; dNle = CCCC[C@@H](N)C(=O)O; X4 = O=C(c1ccc(Cl)nc1)*; Dap = NC[C@H](N)C(=O)O
Tests used:
[1] = biological target: T1, Ras(G12V)-Raf RBD interaction (Homo sapiens, UniProt P01116, G12V); experiment: HTRF assay, inhibition of Ras-Raf RBD interaction; type: binding; settings: read-out: HTRF IC50
T1 construct: The G12V mutant K-Ras (amino acids 1-185) was recombinantly fused to glutathione 5-transferase (GST) at its N-terminus; GST (N, cleaved yes); made in house; host or cells: Escherichia coli BL21
Procedure: Recombinant HA-tagged K-Ras (no GST, 50 nM), GST-Raf RBD (50 nM each), a monoclonal anti-HA antibody labeled with acceptor d2 (2 μg/mL), a monoclonal anti-GST antibody labeled with donor Tb (0.25 μg/mL) (Cisbio), and increasing concentrations of cyclic peptide (0-20 μM) were mixed in PBS (total volume of 20 μL) in a 384-well plate. The plate was incubated overnight at 4° C. and the HTRF signal was measured on a Molecular Devices Spectramax M5 or a Tecan infinite M1000 Pro plate reader. The data were analyzed by Prism 6.0 from Graphpad Software, Inc. (La Jolla, Calif.) and IC50 values were obtained by fitting the data to dose-response-inhibition curve.

H1299 lung cancer cells = type: cell-based; settings: for IC50: 72 h; for anti-proliferative activity against lung cancer cells (in words): MTT assay
Procedure: MTT assays (Mosmann, T. (1983) J. Immunol. Methods 65:55) were performed with H1299 lung cancer cells. One hundred μL of H1299 cells (0.5×10^5 cells/mL) were seeded in each well of a 96-well culture plate and allowed to grow overnight in Advanced RPMI medium supplemented with 10% fetal bovine serum (FBS) and 1% penicillin-streptomycin. Varying concentrations of cyclic peptide (0-25 μM) were added to the each well and the cells were incubated at 37° C. with 5% CO2 for 72 hours. Ten μL of a MTT stock solution (Roche) was added into each well. The plate was incubated at 37° C. for 4 h. Then 100 μL of SDS-HCl solubilizing buffer was added into each well, and the resulting solution was mixed thoroughly. The plate was incubated at 37° C. overnight. The absorbance of the formazan product was measured at 570 nm using a Molecular Devices Spectramax M5 plate reader. Each experiment was performed in triplicates and the cells without any peptide added were treated as control.

[2] = inhibition of Ras-Raf interaction, unlabeled peptide

T1 sequence (P01116 1-185 isoform P01116-2 G12V): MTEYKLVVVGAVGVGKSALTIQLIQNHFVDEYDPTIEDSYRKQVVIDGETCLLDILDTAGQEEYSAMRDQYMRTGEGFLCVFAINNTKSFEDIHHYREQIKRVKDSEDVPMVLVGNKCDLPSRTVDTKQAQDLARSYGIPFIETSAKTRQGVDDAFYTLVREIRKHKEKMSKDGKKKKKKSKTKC

SMILES | IC50 (H1299 lung cancer cells) | further results
CC(C)[C@H]1NC(=O)[C@H](C(C)(C)C)NC(=O)[C@H](Cc2c[nH]c3ccccc23)NC(=O)[C@H](CCC(N)=O)NC(=O)[C@@H](CCCNC(=N)N)NC(=O)[C@H](Cc2ccc(F)c(F)c2)NC(=O)[C@H](CCCNC(=N)N)NC(=O)[C@@H](Cc2ccc3ccccc3c2)NC(=O)[C@H](CCCNC(=N)N)NC(=O)[C@H](CCCNC(=N)N)NC(=O)[C@H](CCCNC(=N)N)NC1=O [Cyclorasin 9A50] (cyclo([Phe(3,4-F2)][dR]QW[Tle][dV]RRR[d2Nal]R)) |  | IC50 [1, 2]: > 1 µM
CCCC[C@H]1NC(=O)[C@H](Cc2ccc(F)cc2)NC(=O)[C@H](CCCNC(=N)N)NC(=O)[C@@H](Cc2ccc3ccccc3c2)NC(=O)[C@H](CCCNC(=N)N)NC(=O)[C@H](CCCNC(=N)N)NC(=O)[C@@H](CCCNC(=N)N)NC(=O)[C@@H](CC(C)C)NC(=O)[C@H]([C@@H](C)O)NC(=O)[C@H](Cc2c[nH]c3ccccc23)NC(=O)[C@H](CCC(N)=O)NC1=O [Cyclorasin 9A15] (cyclo(WT[dL][dR]RR[d2Nal]R[Phe(4-F)][dNle]Q)) | 12 ± 1 µM | 
CC(C)C[C@H]1NC(=O)[C@H](Cc2ccc(F)cc2)NC(=O)[C@H](CCCNC(=N)N)NC(=O)[C@@H](Cc2ccc3ccccc3c2)NC(=O)[C@H](CCCNC(=N)N)NC(=O)[C@H](CCCNC(=N)N)NC(=O)[C@@H](CCCNC(=N)N)NC(=O)[C@@H](C)NC(=O)[C@H]([C@@H](C)O)NC(=O)[C@H](Cc2c[nH]c3ccccc23)NC(=O)[C@H](CCC(N)=O)NC1=O [Cyclorasin 9A10] (cyclo(WT[dA][dR]RR[d2Nal]R[Phe(4-F)][dL]Q)) | 10 ± 3 µM | 
CCCC[C@H]1NC(=O)[C@H](Cc2ccc(O)cc2)NC(=O)[C@H](CCCNC(=N)N)NC(=O)[C@@H](Cc2ccc3ccccc3c2)NC(=O)[C@H](CCCNC(=N)N)NC(=O)[C@H](CCCNC(=N)N)NC(=O)[C@@H](CCCNC(=N)N)NC(=O)[C@@H](C)NC(=O)[C@H]([C@@H](C)O)NC(=O)[C@H](Cc2c[nH]c3ccccc23)NC(=O)[C@H](CCC(N)=O)NC1=O [Cyclorasin 9A13] (cyclo(QWT[dA][dR]RR[d2Nal]RY[dNle])) |  | IC50 [1, 2]: > 20 µM
CCCC[C@H]1NC(=O)[C@H](Cc2ccc(F)c(F)c2)NC(=O)[C@H](CCCNC(=N)N)NC(=O)[C@@H](Cc2ccc3ccccc3c2)NC(=O)[C@H](CCCNC(=N)N)NC(=O)[C@H](CCCNC(=N)N)NC(=O)[C@H](CCCNC(=N)N)NC(=O)[C@@H](C(C)C)NC(=O)[C@H](C(C)(C)C)NC(=O)[C@H](Cc2c[nH]c3ccccc23)NC(=O)[C@H](CCC(N)=O)NC1=O [Cyclorasin 9A54] (cyclo(W[Tle][dV]RRR[d2Nal]R[Phe(3,4-F2)][dNle]Q)) | 7.2 ± 0.4 µM | anti-proliferative activity against lung cancer cells (in words) (H1299 lung cancer cells): less effective
CCCC[C@H]1NC(=O)[C@H](Cc2ccc(F)cc2)NC(=O)[C@H](CCCNC(=N)N)NC(=O)[C@@H](Cc2ccc3ccccc3c2)NC(=O)[C@H](CCCNC(=N)N)NC(=O)[C@H](CCCNC(=N)N)NC(=O)[C@@H](CCCNC(=N)N)NC(=O)[C@@H](C(C)C)NC(=O)[C@H](C(C)(C)C)NC(=O)[C@H](Cc2c[nH]c3ccccc23)NC(=O)[C@H](CCC(N)=O)NC1=O [Cyclorasin 9A53] (cyclo(W[Tle][dV][dR]RR[d2Nal]R[Phe(4-F)][dNle]Q)) | 13 ± 1 µM | 
CCCC[C@H]1NC(=O)[C@H](Cc2ccc(F)cc2)NC(=O)[C@H](CCCNC(=N)N)NC(=O)[C@@H](Cc2ccc3ccccc3c2)NC(=O)[C@H](CCCNC(=N)N)NC(=O)[C@H](CCCNC(=N)N)NC(=O)[C@H](CCCNC(=N)N)NC(=O)[C@@H](C(C)C)NC(=O)[C@H](C(C)(C)C)NC(=O)[C@H](Cc2c[nH]c3ccccc23)NC(=O)[C@H](CCC(N)=O)NC1=O [Cyclorasin 9A48] (cyclo(W[Tle][dV]RRR[d2Nal]R[Phe(4-F)][dNle]Q)) | 11 ± 3 µM | 
CCCC[C@H]1NC(=O)[C@H](Cc2ccc(F)cc2)NC(=O)[C@H](CCCNC(=N)N)NC(=O)[C@@H](Cc2ccc3ccccc3c2)NC(=O)[C@H](CCCNC(=N)N)NC(=O)[C@H](CCCNC(=N)N)NC(=O)[C@H](CCC(=O)N[C@@H](CCCCN)C(N)=O)NC(=O)[C@@H](C)NC(=O)[C@H]([C@@H](C)O)NC(=O)[C@H](Cc2c[nH]c3ccccc23)NC(=O)[C@H](CCC(N)=O)NC1=O [Cyclorasin 9A1] (cyclo(RR[d2Nal]R[Phe(4-F)][dNle]QWT[dA]E([Lys-NH2]))) | 13 ± 2 µM | 
CCCC[C@H]1NC(=O)[C@H](Cc2ccc(F)c(F)c2)NC(=O)[C@H](CCCNC(=N)N)NC(=O)[C@@H](Cc2ccc3ccccc3c2)NC(=O)[C@H](CCCNC(=N)N)NC(=O)[C@H](CCCNC(=N)N)NC(=O)[C@@H](CCCNC(=N)N)NC(=O)[C@@H](C(C)C)NC(=O)[C@H](C(C)(C)C)NC(=O)[C@H](Cc2c[nH]c3ccccc23)NC(=O)[C@H](CCC(N)=O)NC1=O [Cyclorasin 9A51] (cyclo(W[Tle][dV][dR]RR[d2Nal]R[Phe(3,4-F2)][dNle]Q)) | 6.7 ± 0.8 µM | anti-proliferative activity against lung cancer cells (in words) (H1299 lung cancer cells): less effective
CCCC[C@H]1NC(=O)[C@H](CNC(=O)c2ccc(Cl)nc2)NC(=O)[C@H](CCCNC(=N)N)NC(=O)[C@@H](Cc2ccc3ccccc3c2)NC(=O)[C@H](CCCNC(=N)N)NC(=O)[C@H](CCCNC(=N)N)NC(=O)[C@H](CCCNC(=N)N)NC(=O)[C@@H](C)NC(=O)[C@H](C(C)(C)C)NC(=O)[C@H](Cc2c[nH]c3ccccc23)NC(=O)[C@H](CCC(N)=O)NC1=O [Cyclorasin 9A44b] (cyclo(W[Tle][dA]RRR[d2Nal]R[Dap](X4)[dNle]Q)) |  | IC50 [1]: 0.52 ± 0.16 µM
CCCC[C@H]1NC(=O)[C@H](Cc2ccccc2)NC(=O)[C@H](CCCNC(=N)N)NC(=O)[C@@H](Cc2ccc3ccccc3c2)NC(=O)[C@H](CCCNC(=N)N)NC(=O)[C@H](CCCNC(=N)N)NC(=O)[C@@H](CCCNC(=N)N)NC(=O)[C@@H](C)NC(=O)[C@H]([C@@H](C)O)NC(=O)[C@H](Cc2c[nH]c3ccccc23)NC(=O)[C@H](CCC(N)=O)NC1=O [Cyclorasin 9A12] | 9.6 ± 1.3 µM | 
CCCC[C@H]1NC(=O)[C@H](Cc2ccc(F)cc2)NC(=O)[C@H](CCCNC(=N)N)NC(=O)[C@@H](Cc2ccc3ccccc3c2)NC(=O)[C@H](CCCNC(=N)N)NC(=O)[C@H](CCCNC(=N)N)NC(=O)[C@H](CCCNC(=N)N)NC(=O)[C@@H](C)NC(=O)[C@H]([C@@H](C)O)NC(=O)[C@H](Cc2ccc3ccccc3c2)NC(=O)[C@H](CCC(N)=O)NC1=O [Cyclorasin 9A49] (cyclo([2Nal]T[dA]RRR[d2Nal]R[Phe(4-F)][dNle]Q)) | 6.3 ± 0.4 µM | 
CCCC[C@H]1NC(=O)[C@H](Cc2ccc(F)cc2)NC(=O)[C@H](CCCNC(=N)N)NC(=O)[C@@H](Cc2ccc3ccccc3c2)NC(=O)[C@H](CCCNC(=N)N)NC(=O)[C@H](CCCNC(=N)N)NC(=O)[C@H](CCCNC(=N)N)NC(=O)[C@@H](C)NC(=O)[C@H]([C@@H](C)O)NC(=O)[C@H](Cc2cn(Cc3ccccc3)cn2)NC(=O)[C@H](CCC(N)=O)NC1=O [Cyclorasin 9A7] (cyclo([Phe(4-F)][dNle]Q[His(τ-Bzl)]T[dA]RRR[d2Nal]R)) | 10 ± 1 µM | 
CCCC[C@H]1NC(=O)[C@H](Cc2ccc(F)cc2)NC(=O)[C@H](CCCNC(=N)N)NC(=O)[C@H](Cc2ccc3ccccc3c2)NC(=O)[C@H](CCCNC(=N)N)NC(=O)[C@H](CCCNC(=N)N)NC(=O)[C@H](CCCNC(=N)N)NC(=O)[C@@H](C)NC(=O)[C@H]([C@@H](C)O)NC(=O)[C@H](Cc2c[nH]c3ccccc23)NC(=O)[C@H](CCC(N)=O)NC1=O [Cyclorasin 9A55] (cyclo(WT[dA]RRR[2Nal]R[Phe(4-F)][dNle]Q)) | 12 ± 1 µM | 

— patent US20170112896A1, “SMALL MOLECULE RAC OR RHO INHIBITORS” (Ohio State Innovation Foundation, priority 2014, published 2017)
